Source: US20020028936A1, “1,3-disubstituted indolin-2-ones for neoplasia” (priority 1999, published 2002)

Legend:
[1] = system: human colon carcinoma cell line, HT-29; assay: Growth inhibition, Sulforhodamine B (SRB) protein binding assay; assay type: cell-based; conditions: HT-29 cells, six days continuous exposure, read-out: IC50 value (concentration of drug needed to inhibit tumor cell growth by 50%)
Method: The compound of Example No. 1 was assayed for their growth inhibitory activity on the human colon carcinoma cell line, HT-29 obtained from ATCC (Rockville, Md.), to ascertain the degree of growth inhibition. Growth inhibition of this cell line is indicative of a benefit on precancerous lesions and neoplasms. The cell line and growth inhibition assay employed for such experiments are well characterized, and are used to evaluate the anti-neoplastic properties of substances. The assay is used by the United States National Cancer Institute in its screening program for new anti-cancer drugs.
Drug stock solutions were made in 100% DMSO and were then diluted with RPMI media for cell culture testing. All drug solutions were prepared fresh on the day of testing. The cultured cells were obtained at passage #99 and grown in RPMI media supplemented with 5% fetal calf serum, and 2 mM glutamine, 100 U/ml penicillin, […] streptomycin, and 0.25 μg/ml amphotericin. The cultures were maintained in a humidified atmosphere of 95% air and 5% CO2 at 37° C. The cultures were passaged at preconfluent densities using a solution of 0.05% trypsin and 0.53 mM EDTA. […]
Tumor cell growth inhibition was assessed using the Sulforhodamine B (SRB) protein binding assay. […] The dye was then solubilized, and the optical density of the resulting solution was determined on a 96-well plate reader. […]

[2] = system: SW-480 colon adenocarcinoma cells; assay: Apoptosis, DNA fragmentation (Cell Death Detection ELISA plus); assay type: cell-based; conditions: at 100 μM; SW-480 cells, 48 hrs incubation
Method: Apoptosis was measured based on the amount of fragmented DNA contained in cell lysates. Briefly, SW-480 colon adenocarcinoma cells were plated in 96-well microtitre plates (“MTP”) at a density of 10K cells/well in 180 μl and were incubated for 24 hrs. Cells were then treated with 20 μl aliquots of appropriately diluted compound, and allowed to incubate for an additional 48 hrs.
After the incubation, samples were prepared according to the following steps. The MTP was centrifuged (15 min., 1000 rpm) and the supernatant was carefully removed by fast inversion of the MTP. […] Samples were analyzed immediately, because storage at 4° C. or −20° C. reduces the ELISA-signals.
Samples were then processed according to a DNA fragmentation assay protocol, and dose-response curves were generated based on optical density readings. Quantification of DNA was done by a commercially available photometric enzyme-immunoassay manufactured by Mannheim-Boehringer under the name “Cell Death Detection ELISA^plus”. The assay is based on a quantitative sandwich-enzyme-immunoassay-principle using mouse monoclonal antibodies directed against DNA and histones, respectively. […] After removal of unbound antibodies by a washing step, the amount of nucleosomes is quantified by the POD retained in the immunocomplex. POD is determined photometrically with ABTS® (2,2′-Azino-di[3-ethylbenzthiazolin-sulfonate) as substrate. […]

[3] = target: T1, purified cyclooxygenase Type I (Ovis aries, UniProt P05979); assay: Cyclooxygenase (COX) inhibition, purified COX; assay type: biochemical; conditions: 100 μM compound; COX purified from ram seminal vesicles; arachidonic acid 100 μM, 2.0 min at 37° C.
T1 construct: The COX was purified from ram seminal vesicles; from tissue; host or cells: ram seminal vesicles
T1 sequence (P05979 25-600): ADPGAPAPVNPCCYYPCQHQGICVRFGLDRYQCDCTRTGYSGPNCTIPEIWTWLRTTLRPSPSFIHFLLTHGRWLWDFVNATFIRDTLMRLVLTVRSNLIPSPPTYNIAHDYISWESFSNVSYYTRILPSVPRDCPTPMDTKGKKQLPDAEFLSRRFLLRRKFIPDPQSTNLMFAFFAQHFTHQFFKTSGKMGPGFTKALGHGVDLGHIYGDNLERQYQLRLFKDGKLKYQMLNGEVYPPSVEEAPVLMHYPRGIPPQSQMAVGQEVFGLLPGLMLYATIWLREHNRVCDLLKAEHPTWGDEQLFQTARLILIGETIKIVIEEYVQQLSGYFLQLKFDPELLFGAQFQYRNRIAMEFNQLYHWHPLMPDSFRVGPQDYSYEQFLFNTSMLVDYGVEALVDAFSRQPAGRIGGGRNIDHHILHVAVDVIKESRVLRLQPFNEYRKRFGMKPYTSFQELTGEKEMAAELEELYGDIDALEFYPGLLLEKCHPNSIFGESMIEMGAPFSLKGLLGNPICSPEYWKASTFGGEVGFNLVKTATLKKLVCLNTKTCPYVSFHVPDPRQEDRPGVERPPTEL
Method: The assay was terminated by the addition of TCA, and COX activity was determined by absorbance at 530 nm.

In the case of `O=C1C(=Cc2ccccc2)c2ccccc2N1Cc1ccc(F)cc1` [Example 1, (Z, E) 1-(4-Fluorobenzyl)-3-Benzylidene-Indolin-2-One], the IC50 [1] is reported as roughly 7.3 µM, the “fold stimulation (apoptosis, fragmented DNA)” value [2] is reported as 6 fold and the “COX I % Inhibition (100 μM)” value [3] is reported as less than 25%.
